# Patent US20190269596A1, “COSMETIC USE AND METHOD FOR IMPROVING PHYSIOLOGICAL FUNCTIONS OF THE SKIN BY INCREASING THE EXPRESSION OF UBIAD1” (ISP Investments LLC, priority 2016, published 2019)
# Where no end group is shown, it is not given here.
# Legend:
# Format in all cases: cell-based, human
# Ubiad1 [1] = assay: Immunoblotting of Ubiad1 in keratinocytes; details: skin keratinocytes, 1 μM (1%) Ubiad1 inducer peptide
# Protocol: (§1) Normal human epithelial keratinocytes were isolated from skin obtained from plastic surgery of healthy females who had given written informed consent. Keratinocytes were cultured in keratinocyte serum free medium, with provided human recombinant epidermal growth factor and bovine pituitary extract (Gibco, Auckland, NZ), and 0.1 mg/ml Primocin™ (Invivogen, San Diego, Calif., USA).
# Keratinocytes were lysed in RIPA buffer (Thermo Scientific, Rockford, Ill., USA), containing protease inhibitor cocktail and EDTA (Thermo Scientific). The protein concentration was determined using the BCA Protein Assay Kit (Thermo Scientific) and equal amounts of total protein were loaded on a 4 to 12% NuPAGE Bis-Tris Gel (Invitrogen) and transferred onto a nitrocellulose membranes using the iBlot dry blotting system (Invitrogen). Non specific binding sites were blocked, and membranes were then labeled with appropriate antibodies and developed using the SuperSignal West Femto Maximum Sensitivity Substrate kit (Thermo Scientific).
# Ubiad1 [2] = assay: qPCR of Ubiad1 mRNA expression in keratinocytes; details: skin keratinocytes, 1 μM (1%) Ubiad1 inducer peptide
# Protocol: as §1
# Total RNA was extracted using mirVana miRNA isolation kit according to the manufacturer's instructions (Ambion, Austin, Tex., USA). Total RNA was reverse transcribed with the high capacity cDNA reverse transcription kit (Applied Biosystems, Branchburg, N.J., USA). Real-time polymerase chain reaction was performed according to the Taqman method, using the TaqMan Universal PCR Master Mix (Applied Biosystems) with the StepOnePlus Real-time PCR System (Applied Biosystems). Relative expression levels of each target gene were calculated according to the delta-delta-CT method.
# keratinocytes [3] = assay: Transmission electron microscopy of peptide-treated keratinocytes; details: cultured keratinocytes, peptide 1 tLM, 48 hours
# Protocol: as §1
# Cultured keratinocytes, treated with the peptide at 1 tLM concentration for 48 hours were fixed in Karnovsky's solution (Emsdiasum, Hatfield, Pa., USA) for 1 h at room temperature, and left for 12 h at 4° C. Cells were then carefully scrapped off the petridish, pelleted with a brief centrifugation, and washed with 0.1 M sodium cacodylate buffer. Pellets were routinely osmicated, dehydrated in a graded series of ethanol, and infiltrated with; and embedded in, a low viscocity epon-epoxy resin. Ultrathin sections of silver-gray interference color were cut and double-stained with uranyl acetate and lead citrate and then examined in a Zeiss 10 transmission electron microscope. Microphotographs were taken with a Gatan digital camera (Gatan, Pleasanton, Calif., USA).
# keratinocytes [4] = assay: Cellular ROS measurement with CellROX green in keratinocytes exposed to cumene hydroperoxide; details: keratinocytes exposed 1 hour to 200 μM cumene hydroperoxide, peptide-treated
# Protocol: (A) Cellular ROS measurement in keratinocyte exposed 1 hour to 200 μM cumene hydroperoxide using the CellIROX green assay (×20 objective lens, scale bar=31 μm).
# (§2) (B) CellROX quantification graph with One-Way Analysis of Variance, displaying confidence interval means diamonds (green). The line across each diamond represents the group mean. The vertical span of each diamond represents the 95% confidence interval for each group. Grand sample mean is represented by a horizontal black line.
# (§3) Primary antibodies used were anti-Ubiad1 (sc-377013, Santa Cruz Biotechnology, Heidelberg, Gennany), anti-Giantin (ab24586, Abcamn, Cambridge, UK), anti-3-Nitrotyrosine (ab61392, Abcam). Alexa Fluor® coupled secondary antibodies were used (Molecular Probes, Eugene, Oreg., USA). Alexa Fluor® 594 Phalloidin probe were used for F-actin detection (A12381, molecular Probes). CellROX Green probe was used for monitoring intracellular ROS (C10444, molecular Probes). C11-BODIPY (581/591) was used for monitoring lipid peroxidation (C10445, Molecular Probes). […]
# (§4) All experiments have been repeated, the quantification of the fluorescence was performed by measuring the fluorescent intensity of the staining, which was normalized by cell area. Lipid peroxidation in cells was quantified according to manufacturer guideline with the ratios of the signal from the 590 to 510 channels. […]
# keratinocytes [5] = assay: Lipid peroxidation (C11-BODIPY) in keratinocytes exposed to cumene hydroperoxide; details: keratinocytes exposed 1 hour to 200 μM cumene hydroperoxide, peptide-treated
# Protocol: (C) Lipid peroxidation in keratinocyte exposed 1 hour to 200 μM cumene hydroperoxide (reduced BODIPY in red; oxidized BODIPY in green) (×20 objective lens, scale bar=31 μm).
# as §2, with “(D) Lipid peroxidation” for “(B) CellROX”
# as §3, §4
substance,measurement,setting,value
"Ala-Val-Leu-Ala-Gly-NH2 (AVLAG-NH2) [Ubiad1 inducer peptide, artificially synthesized Ubiad1 inducer peptide]",increase of expression of Ubiad1 measured by immunoblotting,Ubiad1 [1],+53%
same,increase of expression of Ubiad1 measured by qPCR,Ubiad1 [2],+102%
same,cell morphology: mitochondrial and Golgi content of the cells,keratinocytes [3],large scale increase in the mitochondrial and Golgi content of the cells
same,resistance to ROS accumulation,keratinocytes [4],more resistant to ROS accumulation
same,resistance to lipid peroxidation,keratinocytes [5],more resistant
